Values quoted from earlier work in patent publication US7491312B2, “Identifying therapeutic compounds based on their physical-chemical properties” (Edison Pharmaceuticals, Inc., priority 2002, dated 2009).

Target: amyloid-β fibril formation (Homo sapiens, UniProt P05067)
Settings: compounds with an apomorphine core structure (FIG. 8)

Sequence of amyloid-β fibril formation (P05067 672-711 limits assumed): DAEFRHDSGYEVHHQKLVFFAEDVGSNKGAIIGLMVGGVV

Compound	reduction of fibril growth [%]
COc1ccc2c(c1O)-c1cccc3c1C(C2)N(C)CC3 (centres unmarked) [apocodeine]	5
CN1CCc2cccc3c2[C@H]1Cc1ccc(O)c(O)c1-3 [apomorphine]	99
